PubChem BioAssay AID212 (DTP/NCI, 2004)
“And” between values parts separate entries of the source, which are not always exact repeats. Equal values may be shown once. Results filed as inconclusive are left out.

Tested on: BDF1 mice, colon carcinoma 38 sc, T/C %
Assay: NCI In Vivo Anticancer Drug Screen. Data for tumor model Colon Carcinoma 38 (subcutaneous) in B6D2F1 (BDF1) mice
Settings: endpoint: median tumor weight (est.), higher = larger tumour
In short: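 Mice with transplanted tumors are treated with compound or vehicle. Survival or tumor size is then measured in both groups. The ratio of treated to control gives the reported figure.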

[1] = dose: 50.0 mg/kg/injection, schedule: Q07DX002 (ip), vehicle: Klucel (hydroxypropylcellulose) (HPC)
[2] = dose: 200.0 mg/kg/injection, schedule: Q07DX002 (ip), vehicle: Klucel (hydroxypropylcellulose) (HPC)
[3] = dose: 100.0 mg/kg/injection, schedule: Q07DX002 (ip), vehicle: Klucel (hydroxypropylcellulose) (HPC)
[4] = dose: 12.5 mg/kg/injection, schedule: Q07DX002 (ip), vehicle: saline with Tween-80

SMILES: C[C@@H]1C(=O)C[C@H]2C(C)(C)CCC[C@]2(C)[C@@]1(O)CCc1ccoc1
- T/C [1]: 74 % of control
- T/C [2]: 84 % of control
- T/C (dose: 400.0 mg/kg/injection, schedule: Q07DX002 (ip), vehicle: Klucel (hydroxypropylcellulose) (HPC)): 67 % of control

SMILES: CC(=O)O[C@@H]1[C@@H](O)C2=C3[C@]4(C)[C@@H]1C(C)(C)C(=O)C[C@@H]4[C@]3(O)[C@H](OC(C)=O)[C@@]1(C[C@@H]1C)C2=O
- T/C (dose: 3.12 mg/kg/injection, schedule: Q07DX003 (ip), vehicle: saline with Tween-80): 97 % of control
- T/C (dose: 6.25 mg/kg/injection, schedule: Q07DX003 (ip), vehicle: saline with Tween-80): 93 % of control
- T/C (dose: 25.0 mg/kg/injection, schedule: Q07DX003 (ip), vehicle: saline with Tween-80): 86 % of control
- T/C (dose: 50.0 mg/kg/injection, schedule: Q07DX003 (ip), vehicle: saline with Tween-80): 64 % of control

SMILES: Oc1c(Cl)cc(Cl)cc1C=NCCSc1ccc(Cl)cc1
- T/C [1]: 85 % of control
- T/C [3]: 78 % of control
- T/C [2]: 162 % of control

SMILES: CC12CCC3C(CCC4CC(OC(=O)Cc5ccc(N(CCCl)CCCl)cc5)CCC43C)C1CCC(=O)N2 (stereo not given)
- T/C (dose: 1.5 mg/kg/injection, schedule: Q07DX002 (ip), vehicle: saline with Tween-80): 121 % of control
- T/C (dose: 3.0 mg/kg/injection, schedule: Q07DX002 (ip), vehicle: saline with Tween-80): 77 % of control and 91 % of control
- T/C (dose: 6.0 mg/kg/injection, schedule: Q07DX002 (ip), vehicle: saline with Tween-80): 47 % of control and 48 % of control
- T/C (dose: 24.0 mg/kg/injection, schedule: Q07DX002 (ip), vehicle: saline with Tween-80): 27 % of control and 33 % of control

SMILES: O=C1CN(Cc2ccc3c(c2)OCO3)NO1
- T/C [4]: 76 % of control and 89 % of control
- T/C (dose: 25.0 mg/kg/injection, schedule: Q07DX002 (ip), vehicle: saline with Tween-80): 81 % of control and 84 % of control

SMILES: O=c1n(CC2CO2)c(=O)n(CC2CO2)c(=O)n1CC1CO1 (stereo not given)
- T/C (dose: 12.0 mg/kg/injection, schedule: Q07DX002 (ip), vehicle: saline with Tween-80): 121 % of control
- T/C [4]: 170 % of control
- T/C (dose: 12.5 mg/kg/injection, schedule: Q07DX002 (ip), vehicle: suspension in saline): 101 % of control and 88 % of control and 89 % of control
- T/C (dose: 25.0 mg/kg/injection, schedule: Q07DX003 (ip), vehicle: saline): 43 % of control
- T/C (dose: 50.0 mg/kg/injection, schedule: Q07DX002 (ip), vehicle: saline with Tween-80): 119 % of control and 102 % of control
- T/C (dose: 50.0 mg/kg/injection, schedule: Q07DX002 (ip), vehicle: suspension in saline): 66 % of control and 42 % of control and 62 % of control
- T/C (dose: 50.0 mg/kg/injection, schedule: Q07DX003 (ip), vehicle: saline): 36 % of control
- T/C (dose: 100.0 mg/kg/injection, schedule: Q07DX002 (ip), vehicle: saline with Tween-80): 42 % of control and 65 % of control
- T/C (dose: 100.0 mg/kg/injection, schedule: Q07DX002 (ip), vehicle: suspension in saline): 81 % of control
- T/C (dose: 200.0 mg/kg/injection, schedule: Q07DX002 (ip), vehicle: suspension in saline): 81 % of control

SMILES: Cc1c(-c2ccc(-c3ccccc3F)cc2)nc2ccc(F)cc2c1C(=O)O
- T/C (dose: 5.0 mg/kg/injection, schedule: Q01DX008 (ip), vehicle: water): 24 % of control
- T/C (dose: 10.0 mg/kg/injection, schedule: Q01DX008 (ip), vehicle: water): 5 % of control
- T/C (dose: 20.0 mg/kg/injection, schedule: Q01DX008 (ip), vehicle: water): 16 % of control

SMILES: CN(C)CCCOC(=O)Cc1cccc2c(=O)cc(-c3ccccc3)oc12
- T/C [3]: 107 % of control
- T/C [2]: 81 % of control

SMILES: CC(=O)O[C@@H]1CO[C@H]2O[C@H]3[C@@H](C(C=O)=C[C@H](O)[C@@H]4C5=C(C(C)C)CC[C@]5(C)CC[C@@]34C)[C@@]2(O)C1=O
- T/C (dose: 1.5 mg/kg/injection, schedule: Q07DX002 (ip), vehicle: Klucel (hydroxypropylcellulose) (HPC)): 57 % of control
- T/C (dose: 3.0 mg/kg/injection, schedule: Q07DX002 (ip), vehicle: Klucel (hydroxypropylcellulose) (HPC)): 80 % of control
- T/C (dose: 6.0 mg/kg/injection, schedule: Q07DX002 (ip), vehicle: Klucel (hydroxypropylcellulose) (HPC)): 61 % of control
- T/C (dose: 12.0 mg/kg/injection, schedule: Q07DX002 (ip), vehicle: Klucel (hydroxypropylcellulose) (HPC)): 86 % of control

SMILES: Nc1nc(=S)c2ncn(C3CC(O)C(CO)O3)c2[nH]1 (stereo not given)
- T/C (dose: 4.0 mg/kg/injection, schedule: Q07DX003 (ip), vehicle: saline with Tween-80): 63 % of control
- T/C (dose: 5.0 mg/kg/injection, schedule: Q07DX003 (ip), vehicle: saline with Tween-80): 32 % of control
- T/C (dose: 8.0 mg/kg/injection, schedule: Q07DX003 (ip), vehicle: saline with Tween-80): 111 % of control
- T/C (dose: 10.0 mg/kg/injection, schedule: Q07DX003 (ip), vehicle: saline with Tween-80): 22 % of control
- T/C (dose: 16.0 mg/kg/injection, schedule: Q07DX003 (ip), vehicle: saline with Tween-80): 39 % of control
- T/C (dose: 20.0 mg/kg/injection, schedule: Q07DX003 (ip), vehicle: saline with Tween-80): 25 % of control
- T/C (dose: 32.0 mg/kg/injection, schedule: Q07DX003 (ip), vehicle: saline with Tween-80): 89 % of control
- T/C (dose: 40.0 mg/kg/injection, schedule: Q07DX003 (ip), vehicle: saline with Tween-80): 14 % of control
- T/C (dose: 64.0 mg/kg/injection, schedule: Q07DX003 (ip), vehicle: saline with Tween-80): 110 % of control
- T/C (dose: 80.0 mg/kg/injection, schedule: Q07DX003 (ip), vehicle: saline with Tween-80): 4 % of control
- T/C (dose: 128.0 mg/kg/injection, schedule: Q07DX003 (ip), vehicle: saline with Tween-80): 36 % of control

SMILES: COc1cc2cc(c1Cl)N(C)C(=O)C[C@H](OC(=O)[C@H](C)N(C)C(C)=O)[C@]1(C)O[C@H]1[C@H](C)[C@@H]1C[C@@](O)(NC(=O)O1)[C@H](OC)C=C/C=C(\C)C2
- T/C (dose: 0.01 mg/kg/injection, schedule: Q07DX003 (ip), vehicle: Klucel (hydroxypropylcellulose) (HPC)): 99 % of control
- T/C (dose: 0.03 mg/kg/injection, schedule: Q07DX003 (ip), vehicle: Klucel (hydroxypropylcellulose) (HPC)): 114 % of control
- T/C (dose: 0.06 mg/kg/injection, schedule: Q07DX003 (ip), vehicle: Klucel (hydroxypropylcellulose) (HPC)): 84 % of control
- T/C (dose: 0.12 mg/kg/injection, schedule: Q07DX003 (ip), vehicle: Klucel (hydroxypropylcellulose) (HPC)): 73 % of control
- T/C (dose: 0.25 mg/kg/injection, schedule: Q07DX003 (ip), vehicle: Klucel (hydroxypropylcellulose) (HPC)): 164 % of control
- T/C (dose: 0.5 mg/kg/injection, schedule: Q07DX003 (ip), vehicle: Klucel (hydroxypropylcellulose) (HPC)): 67 % of control
- T/C (dose: 30.0 micrograms/kg/injection, schedule: Q07DX003 (ip), vehicle: Klucel (hydroxypropylcellulose) (HPC)): 116 % of control
- T/C (dose: 125.0 micrograms/kg/injection, schedule: Q07DX003 (ip), vehicle: Klucel (hydroxypropylcellulose) (HPC)): 120 % of control
- T/C (dose: 250.0 micrograms/kg/injection, schedule: Q07DX003 (ip), vehicle: Klucel (hydroxypropylcellulose) (HPC)): 90 % of control
- T/C (dose: 500.0 micrograms/kg/injection, schedule: Q07DX003 (ip), vehicle: Klucel (hydroxypropylcellulose) (HPC)): 75 % of control
- T/C (dose: 1000.0 micrograms/kg/injection, schedule: Q07DX003 (ip), vehicle: Klucel (hydroxypropylcellulose) (HPC)): 57 % of control

SMILES: COC1CC(C)C(OC)C2=CC(=O)C=C(NC(=O)/C(C)=C/C=C\C(C)C(OC(N)=O)/C(C)=C\C(C)C1OC)C2=O (stereo not given)
- T/C (dose: 3.13 mg/kg/injection, schedule: Q07DX002 (ip), vehicle: saline + alcohol): 111 % of control
- T/C (dose: 6.25 mg/kg/injection, schedule: Q07DX002 (ip), vehicle: saline + alcohol): 110 % of control
- T/C (dose: 12.5 mg/kg/injection, schedule: Q07DX002 (ip), vehicle: saline + alcohol): 105 % of control
- T/C (dose: 25.0 mg/kg/injection, schedule: Q07DX002 (ip), vehicle: saline + alcohol): 110 % of control
- T/C (dose: 50.0 mg/kg/injection, schedule: Q07DX002 (ip), vehicle: saline + alcohol): 102 % of control

SMILES: C[n+]1c(-c2cccc(OCCOCCOc3cccc(-c4c5cc(N)ccc5c5ccc(N)cc5[n+]4C)c3)c2)c2cc(N)ccc2c2ccc(N)cc21
- T/C (dose: 1.0 mg/kg/injection, schedule: Q07DX002 (ip), vehicle: water): 53 % of control
- T/C (dose: 4.0 mg/kg/injection, schedule: Q07DX002 (ip), vehicle: water): 44 % of control and 45 % of control
- T/C (dose: 32.0 mg/kg/injection, schedule: Q07DX002 (ip), vehicle: water): 81 % of control
